# In ChEMBL document CHEMBL5649168, “Discovery of a selective catalytic p300/CBP inhibitor that targets lineage-specific tumours” (Nature, 2017):
# Tests used:
# [1] = target: Bromodomain-containing protein 3 (Homo sapiens, UniProt Q15059); test: Inhibition of BRD3 (unknown origin)
# [2] = target: Bromodomain testis-specific protein (Homo sapiens, UniProt Q58F21); test: Inhibition of BRDT (unknown origin)
# [3] = target: Ca2+ channel (L, dihydropyridine site) (Homo sapiens, UniProt O60840+Q01668+Q13698+Q13936); test: Inhibition of Ca2+ channel (L, dihydropyridine site) (unknown origin) at 10 uM by radioligand binding assay relative to control; type: protein assay
# [4] = target: Calcium/calmodulin-dependent protein kinase kinase 2 (Homo sapiens, UniProt Q96RR4); test: Inhibition of CAMKK2 (unknown origin)
# [5] = Inhibition of CDK7/Cyclin H (unknown origin); set-up: species or system Homo sapiens
# [6] = target: Mitogen-activated protein kinase 1 (Homo sapiens, UniProt P28482); test: Inhibition of Erk2 (unknown origin)
# [7] = target: Fibroblast growth factor receptor 1 (Homo sapiens, UniProt P11362); test: Inhibition of FGFR1 (unknown origin)
# [8] = target: Vascular endothelial growth factor receptor 1 (Homo sapiens, UniProt P17948); test: Inhibition of Flt1 (unknown origin)
# [9] = target: G protein-coupled receptor kinase 5 (Homo sapiens, UniProt P34947); test: Inhibition of GRK5 (unknown origin)
# [10] = target: Glycogen synthase kinase-3 alpha (Homo sapiens, UniProt P49840); test: Inhibition of Gsk3alpha (unknown origin)
# [11] = target: Mitogen-activated protein kinase 9 (Homo sapiens, UniProt P45984); test: Inhibition of JNK2 (unknown origin)
# [12] = target: Vascular endothelial growth factor receptor 2 (Homo sapiens, UniProt P35968); test: Inhibition of Kdr (unknown origin)
# [13] = target: Tyrosine-protein kinase Lck (Homo sapiens, UniProt P06239); test: Inhibition of Lck (unknown origin)
# [14] = target: Mitogen-activated protein kinase kinase kinase kinase 2 (Homo sapiens, UniProt Q12851); test: Inhibition of MAP4K2 (unknown origin)
# [15] = target: Mitogen-activated protein kinase 14 (Homo sapiens, UniProt Q16539); test: Inhibition of p38alpha (unknown origin)
# [16] = target: cAMP-dependent protein kinase (PKA) (Homo sapiens, UniProt P22694+P17612+P22612); test: Inhibition of PKA (unknown origin); type: protein assay
# [17] = target: Serine/threonine-protein kinase pim-2 (Homo sapiens, UniProt Q9P1W9); test: Inhibition of Pim2 (unknown origin)
# [18] = target: Serine/threonine-protein kinase 16 (Homo sapiens, UniProt O75716); test: Inhibition of STK16 (unknown origin)
# [19] = target: BDNF/NT-3 growth factors receptor (Homo sapiens, UniProt Q16620); test: Inhibition of TrkB (unknown origin)
# [20] = test system: NCI-H2444; test: Antiproliferative activity against human NCI-H2444 cells assessed as inhibition of cell viability incubated for 3 to 5 days by Celltiter-Glo luminescent assay; type: functional, cell-based
# [21] = test system: COLO-679; test: Antiproliferative activity against human COLO-679 cells assessed as inhibition of cell viability incubated for 3 to 5 days by Celltiter-Glo luminescent assay; type: functional, cell-based
# [22] = test system: HT-144; test: Antiproliferative activity against human HT-144 cells assessed as inhibition of cell viability incubated for 3 to 5 days by Celltiter-Glo luminescent assay; type: functional, cell-based
# [23] = test system: SK-MEL-2; test: Antiproliferative activity against human SK-MEL-2 cells assessed as inhibition of cell viability incubated for 3 to 5 days by Celltiter-Glo luminescent assay; type: functional, cell-based
# [24] = test system: NCI-H146; test: Antiproliferative activity against human NCI-H146 cells assessed as inhibition of cell viability incubated for 3 to 5 days by Celltiter-Glo luminescent assay; type: functional, cell-based
# [25] = test system: NCI-H1048; test: Antiproliferative activity against human NCI-H1048 cells assessed as inhibition of cell viability incubated for 3 to 5 days by Celltiter-Glo luminescent assay; type: functional, cell-based
# [26] = test system: BT-20; test: Antiproliferative activity against human BT-20 cells assessed as inhibition of cell viability incubated for 3 to 5 days by Celltiter-Glo luminescent assay; type: functional, cell-based
# [27] = test system: MDA-MB-453; test: Antiproliferative activity against human MDA-MB-453 cells assessed as inhibition of cell viability incubated for 3 to 5 days by Celltiter-Glo luminescent assay; type: functional, cell-based
# [28] = test system: MDA-MB-231; test: Antiproliferative activity against human MDA-MB-231 cells assessed as inhibition of cell viability incubated for 3 to 5 days by Celltiter-Glo luminescent assay; type: functional, cell-based
# [29] = test system: NCI-H929; test: Antiproliferative activity against human NCI-H929 cells assessed as inhibition of cell viability incubated for 3 to 5 days by Celltiter-Glo luminescent assay; type: functional, cell-based
# [30] = test system: AMO1; test: Antiproliferative activity against human AMO1 cells assessed as inhibition of cell viability incubated for 3 to 5 days by Celltiter-Glo luminescent assay; type: functional, cell-based
# [31] = test system: BJAB; test: Antiproliferative activity against human BJAB cells assessed as inhibition of cell viability incubated for 3 to 5 days by Celltiter-Glo luminescent assay; type: functional, cell-based
# [32] = test system: NU-DHL-1; test: Antiproliferative activity against human NU-DHL-1 cells assessed as inhibition of cell viability incubated for 3 to 5 days by Celltiter-Glo luminescent assay; type: functional, cell-based
# [33] = test system: SUD4; test: Antiproliferative activity against human SU-DHL-4 cells assessed as inhibition of cell viability incubated for 3 to 5 days by Celltiter-Glo luminescent assay; type: functional, cell-based
# [34] = test system: SU-DHL-2; test: Antiproliferative activity against human SUDHL2 cells assessed as inhibition of cell viability incubated for 3 to 5 days by Celltiter-Glo luminescent assay; type: functional, cell-based
# [35] = test system: U2932; test: Antiproliferative activity against human U2932 cells assessed as inhibition of cell viability incubated for 3 to 5 days by Celltiter-Glo luminescent assay; type: functional, cell-based
# [36] = test system: THP-1; test: Antiproliferative activity against human THP-1 cells assessed as inhibition of cell viability incubated for 3 to 5 days by Celltiter-Glo luminescent assay; type: functional, cell-based
# [37] = test system: Jurkat; test: Antiproliferative activity against human Jurkat cells assessed as inhibition of cell viability incubated for 3 to 5 days by Celltiter-Glo luminescent assay; type: functional, cell-based
# [38] = test system: MOLT-4; test: Antiproliferative activity against human MOLT-4 cells assessed as inhibition of cell viability incubated for 3 to 5 days by Celltiter-Glo luminescent assay; type: functional, cell-based
# [39] = test system: KARPAS-299; test: Antiproliferative activity against human KARPAS-299 cells assessed as inhibition of cell viability incubated for 3 to 5 days by Celltiter-Glo luminescent assay; type: functional, cell-based
# [40] = Half life in CB17 SCID mouse xenografted with LuCaP-77 CR cell at 50 mg/kg, ip administered for 7 days; type: ADME, organism-based; conditions: in vivo, time 7 day
# [41] = Tmax in CB17 SCID mouse xenografted with LuCaP-77 CR cell at 200 mg/kg, ip administered for 7 days; type: ADME, organism-based; conditions: in vivo, time 7 day
# [42] = Ratio of drug concentration in brain to plasma in CB17 SCID mouse xenografted with LuCaP-77 CR cell at 50 mg/kg, po measured after 24 hrs
# [43] = target: Histone acetyltransferase p300 (Homo sapiens, UniProt Q09472)
# [44] = cells; conditions: Homo sapiens, SC-1
# Chain of Calcium/calmodulin-dependent protein kinase kinase 2 (Q96RR4 whole entry): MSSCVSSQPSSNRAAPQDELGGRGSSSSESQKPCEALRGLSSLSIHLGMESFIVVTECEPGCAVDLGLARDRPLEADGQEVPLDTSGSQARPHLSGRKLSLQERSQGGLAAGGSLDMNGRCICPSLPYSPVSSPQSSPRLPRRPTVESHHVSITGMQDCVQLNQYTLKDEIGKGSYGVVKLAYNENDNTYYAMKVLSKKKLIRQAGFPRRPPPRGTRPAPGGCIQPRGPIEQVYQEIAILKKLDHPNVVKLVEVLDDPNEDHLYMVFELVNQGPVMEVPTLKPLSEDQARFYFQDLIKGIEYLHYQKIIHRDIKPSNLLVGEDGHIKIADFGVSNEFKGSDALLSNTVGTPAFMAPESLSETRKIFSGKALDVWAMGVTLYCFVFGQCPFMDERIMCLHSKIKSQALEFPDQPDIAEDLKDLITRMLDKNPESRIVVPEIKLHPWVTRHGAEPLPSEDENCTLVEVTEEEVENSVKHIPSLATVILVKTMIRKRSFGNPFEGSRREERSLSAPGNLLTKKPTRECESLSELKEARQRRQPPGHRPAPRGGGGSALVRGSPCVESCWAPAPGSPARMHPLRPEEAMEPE
# Chain of Vascular endothelial growth factor receptor 1 (P17948 whole entry): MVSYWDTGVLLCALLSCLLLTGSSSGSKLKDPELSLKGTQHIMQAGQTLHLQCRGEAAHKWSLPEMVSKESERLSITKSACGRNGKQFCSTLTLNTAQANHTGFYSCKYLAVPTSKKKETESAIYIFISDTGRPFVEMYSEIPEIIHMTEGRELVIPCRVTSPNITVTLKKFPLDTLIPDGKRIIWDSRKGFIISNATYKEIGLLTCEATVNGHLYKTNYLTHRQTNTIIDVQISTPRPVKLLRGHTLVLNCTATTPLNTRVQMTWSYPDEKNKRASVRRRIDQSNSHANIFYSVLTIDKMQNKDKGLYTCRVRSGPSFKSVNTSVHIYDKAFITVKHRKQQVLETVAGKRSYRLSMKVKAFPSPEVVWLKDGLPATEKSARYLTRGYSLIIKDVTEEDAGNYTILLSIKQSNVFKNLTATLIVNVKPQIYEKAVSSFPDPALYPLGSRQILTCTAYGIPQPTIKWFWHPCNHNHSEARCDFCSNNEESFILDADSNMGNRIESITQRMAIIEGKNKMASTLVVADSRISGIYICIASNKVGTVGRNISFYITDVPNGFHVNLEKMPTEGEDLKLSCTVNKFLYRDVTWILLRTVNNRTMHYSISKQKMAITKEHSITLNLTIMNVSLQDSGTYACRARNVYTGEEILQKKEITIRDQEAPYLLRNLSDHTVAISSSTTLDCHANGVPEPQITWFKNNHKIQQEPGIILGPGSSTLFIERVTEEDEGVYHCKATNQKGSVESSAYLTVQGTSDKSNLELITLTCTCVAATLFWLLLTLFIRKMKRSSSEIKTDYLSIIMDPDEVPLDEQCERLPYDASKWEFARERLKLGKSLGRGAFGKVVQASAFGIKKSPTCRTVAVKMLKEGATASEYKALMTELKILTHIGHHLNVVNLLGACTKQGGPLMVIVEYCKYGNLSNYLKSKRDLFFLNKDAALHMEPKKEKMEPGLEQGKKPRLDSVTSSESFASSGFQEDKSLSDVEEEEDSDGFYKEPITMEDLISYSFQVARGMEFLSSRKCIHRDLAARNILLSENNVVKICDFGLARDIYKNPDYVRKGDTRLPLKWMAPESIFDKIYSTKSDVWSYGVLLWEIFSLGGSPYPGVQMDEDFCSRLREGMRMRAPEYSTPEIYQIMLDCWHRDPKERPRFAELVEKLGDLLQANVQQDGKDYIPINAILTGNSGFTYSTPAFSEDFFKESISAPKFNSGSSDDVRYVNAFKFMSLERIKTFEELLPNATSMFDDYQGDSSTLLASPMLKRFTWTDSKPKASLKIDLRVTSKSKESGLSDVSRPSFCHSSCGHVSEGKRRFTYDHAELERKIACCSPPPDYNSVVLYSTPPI
# Chain of Bromodomain-containing protein 3 (Q15059 whole entry): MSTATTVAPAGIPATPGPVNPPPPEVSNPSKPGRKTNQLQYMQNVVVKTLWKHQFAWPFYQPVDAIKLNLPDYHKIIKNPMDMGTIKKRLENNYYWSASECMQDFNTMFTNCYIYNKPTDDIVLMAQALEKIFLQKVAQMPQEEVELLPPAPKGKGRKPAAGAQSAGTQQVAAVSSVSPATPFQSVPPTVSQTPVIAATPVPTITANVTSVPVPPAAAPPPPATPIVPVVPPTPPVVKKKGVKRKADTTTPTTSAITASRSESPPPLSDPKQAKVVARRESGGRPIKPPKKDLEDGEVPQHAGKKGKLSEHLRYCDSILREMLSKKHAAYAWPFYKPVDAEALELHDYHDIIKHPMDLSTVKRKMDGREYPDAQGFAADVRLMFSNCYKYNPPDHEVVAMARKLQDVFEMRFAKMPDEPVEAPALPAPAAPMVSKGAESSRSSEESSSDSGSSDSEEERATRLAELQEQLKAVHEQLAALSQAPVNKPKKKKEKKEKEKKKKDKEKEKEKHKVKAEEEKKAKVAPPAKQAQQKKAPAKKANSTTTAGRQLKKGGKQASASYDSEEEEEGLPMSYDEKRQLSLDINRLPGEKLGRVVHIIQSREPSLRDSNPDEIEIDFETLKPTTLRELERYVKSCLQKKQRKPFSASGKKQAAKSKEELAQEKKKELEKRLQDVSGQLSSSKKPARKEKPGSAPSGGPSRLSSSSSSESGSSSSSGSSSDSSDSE
# Chain of Serine/threonine-protein kinase pim-2 (Q9P1W9 whole entry): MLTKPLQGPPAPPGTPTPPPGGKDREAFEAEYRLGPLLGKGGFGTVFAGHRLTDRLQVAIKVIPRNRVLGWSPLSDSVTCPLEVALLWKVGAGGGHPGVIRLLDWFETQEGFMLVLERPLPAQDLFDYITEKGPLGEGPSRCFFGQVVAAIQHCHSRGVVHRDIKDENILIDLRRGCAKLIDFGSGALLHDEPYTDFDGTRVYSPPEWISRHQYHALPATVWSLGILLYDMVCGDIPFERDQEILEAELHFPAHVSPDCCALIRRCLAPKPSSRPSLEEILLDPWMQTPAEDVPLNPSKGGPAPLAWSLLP
# Chain of Fibroblast growth factor receptor 1 (P11362 whole entry): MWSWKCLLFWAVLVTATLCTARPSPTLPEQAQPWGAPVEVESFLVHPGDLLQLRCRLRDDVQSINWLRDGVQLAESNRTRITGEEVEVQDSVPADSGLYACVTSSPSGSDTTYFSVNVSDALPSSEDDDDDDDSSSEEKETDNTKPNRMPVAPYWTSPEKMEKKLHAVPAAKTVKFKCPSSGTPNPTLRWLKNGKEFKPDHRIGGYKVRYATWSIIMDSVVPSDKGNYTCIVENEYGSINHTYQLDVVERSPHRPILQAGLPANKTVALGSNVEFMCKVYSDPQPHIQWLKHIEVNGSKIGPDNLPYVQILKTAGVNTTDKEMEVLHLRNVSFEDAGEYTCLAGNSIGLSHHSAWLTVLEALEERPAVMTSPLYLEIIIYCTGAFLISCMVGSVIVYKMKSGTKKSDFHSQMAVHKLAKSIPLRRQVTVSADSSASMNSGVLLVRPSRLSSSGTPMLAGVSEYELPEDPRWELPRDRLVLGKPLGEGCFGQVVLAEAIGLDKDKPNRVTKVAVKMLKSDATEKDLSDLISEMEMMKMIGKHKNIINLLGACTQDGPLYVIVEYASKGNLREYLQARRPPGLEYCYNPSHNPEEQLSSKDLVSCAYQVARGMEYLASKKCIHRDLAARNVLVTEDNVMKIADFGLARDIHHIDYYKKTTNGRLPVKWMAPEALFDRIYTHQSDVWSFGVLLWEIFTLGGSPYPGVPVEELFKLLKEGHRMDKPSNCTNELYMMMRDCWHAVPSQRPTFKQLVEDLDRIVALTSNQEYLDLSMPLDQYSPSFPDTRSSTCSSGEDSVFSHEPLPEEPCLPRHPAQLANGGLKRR
# Chain of Glycogen synthase kinase-3 alpha (P49840 whole entry): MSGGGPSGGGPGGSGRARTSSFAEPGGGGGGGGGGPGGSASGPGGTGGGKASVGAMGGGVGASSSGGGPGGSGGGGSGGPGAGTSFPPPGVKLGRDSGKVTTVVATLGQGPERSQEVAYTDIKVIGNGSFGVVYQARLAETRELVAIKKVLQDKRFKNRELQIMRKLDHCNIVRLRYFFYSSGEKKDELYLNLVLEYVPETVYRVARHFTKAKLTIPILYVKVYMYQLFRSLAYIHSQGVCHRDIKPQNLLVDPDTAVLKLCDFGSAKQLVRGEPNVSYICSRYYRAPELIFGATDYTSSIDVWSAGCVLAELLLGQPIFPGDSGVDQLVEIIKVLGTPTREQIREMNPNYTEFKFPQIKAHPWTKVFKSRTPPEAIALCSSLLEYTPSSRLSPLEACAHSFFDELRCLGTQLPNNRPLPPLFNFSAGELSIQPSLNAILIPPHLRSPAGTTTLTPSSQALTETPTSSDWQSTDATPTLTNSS
# Chain of Mitogen-activated protein kinase 14 (Q16539 whole entry): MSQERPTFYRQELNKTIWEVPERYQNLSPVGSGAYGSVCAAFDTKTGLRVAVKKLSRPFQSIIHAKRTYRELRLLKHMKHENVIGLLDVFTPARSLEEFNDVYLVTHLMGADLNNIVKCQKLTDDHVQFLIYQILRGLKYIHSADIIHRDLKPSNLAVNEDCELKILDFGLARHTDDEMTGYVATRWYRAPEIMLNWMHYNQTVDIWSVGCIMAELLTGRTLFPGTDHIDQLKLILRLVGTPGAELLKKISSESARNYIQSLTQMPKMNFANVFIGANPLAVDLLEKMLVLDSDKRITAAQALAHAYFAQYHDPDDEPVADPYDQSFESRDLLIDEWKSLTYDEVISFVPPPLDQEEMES
# Chain of Serine/threonine-protein kinase 16 (O75716 whole entry): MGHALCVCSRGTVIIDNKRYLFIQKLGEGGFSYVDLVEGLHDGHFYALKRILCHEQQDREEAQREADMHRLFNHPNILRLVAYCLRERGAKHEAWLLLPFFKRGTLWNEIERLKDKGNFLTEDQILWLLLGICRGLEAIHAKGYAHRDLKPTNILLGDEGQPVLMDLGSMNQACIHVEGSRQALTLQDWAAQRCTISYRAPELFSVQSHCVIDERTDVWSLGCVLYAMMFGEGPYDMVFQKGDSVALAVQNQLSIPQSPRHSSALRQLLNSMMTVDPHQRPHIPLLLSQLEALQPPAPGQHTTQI
compound,measurement,setting,value
CNC(=O)Nc1ccc2c(c1)CC[C@@]21OC(=O)N(CC(=O)N(Cc2ccc(F)cc2)[C@@H](C)C(F)(F)F)C1=O [A-485],IC50,[1],> 10 µM
same,IC50,[2],> 10 µM
same,inhibition at 10 µM,[3],-9%
same,IC50,[4],> 10 µM
same,IC50,[5],> 10 µM
same,IC50,[6],> 10 µM
same,IC50,[7],> 10 µM
same,IC50,[8],> 10 µM
same,IC50,[9],> 10 µM
same,IC50,[10],> 10 µM
same,IC50,[11],> 10 µM
same,IC50,[12],> 10 µM
same,IC50,[13],> 10 µM
same,IC50,[14],> 10 µM
same,IC50,[15],> 10 µM
same,IC50,[16],> 10 µM
same,IC50,[17],> 10 µM
same,IC50,[18],> 10 µM
same,IC50,[19],> 10 µM
same,EC50,[20],5.92 µM
same,EC50,[21],2.26 µM
same,EC50,[22],3.08 µM
same,EC50,[23],> 10 µM
same,EC50,[24],0.4 µM
same,EC50,[25],> 10 µM
same,EC50,[26],0.34 µM
same,EC50,[27],1.87 µM
same,EC50,[28],> 10 µM
same,EC50,[29],0.33 µM
same,EC50,[30],1.09 µM
same,EC50,[31],0.28 µM
same,EC50,[32],0.53 µM
same,EC50,[33],0.72 µM
same,EC50,[34],0.95 µM
same,EC50,[35],2.46 µM
same,EC50,[36],3.51 µM
same,EC50,[37],4.03 µM
same,EC50,[38],> 10 µM
same,EC50,[39],> 10 µM
same,half-life,[40],1.9 h
same,Tmax,[41],6 h
same,Kp at 24 h,[42],0.097
same,T1/2,[43],8.85 min
same,EC50,[44],1.69 µM
